The record followed here is patent US20220280661A1, “GLUCOCORTICOID RECEPTOR RADIOLIGANDS AND METHODS FOR THEIR PREPARATION AND USE” (The Regents of the University of California, priority 2019, published 2022).

The target of data set [1] is T1, full length human MR (Homo sapiens, UniProt P08235).
T1 construct: HEK293 transiently overexpressing full length human MR; expressed in transfected cells; host or cells: HEK293
T1 sequence (P08235 1-984): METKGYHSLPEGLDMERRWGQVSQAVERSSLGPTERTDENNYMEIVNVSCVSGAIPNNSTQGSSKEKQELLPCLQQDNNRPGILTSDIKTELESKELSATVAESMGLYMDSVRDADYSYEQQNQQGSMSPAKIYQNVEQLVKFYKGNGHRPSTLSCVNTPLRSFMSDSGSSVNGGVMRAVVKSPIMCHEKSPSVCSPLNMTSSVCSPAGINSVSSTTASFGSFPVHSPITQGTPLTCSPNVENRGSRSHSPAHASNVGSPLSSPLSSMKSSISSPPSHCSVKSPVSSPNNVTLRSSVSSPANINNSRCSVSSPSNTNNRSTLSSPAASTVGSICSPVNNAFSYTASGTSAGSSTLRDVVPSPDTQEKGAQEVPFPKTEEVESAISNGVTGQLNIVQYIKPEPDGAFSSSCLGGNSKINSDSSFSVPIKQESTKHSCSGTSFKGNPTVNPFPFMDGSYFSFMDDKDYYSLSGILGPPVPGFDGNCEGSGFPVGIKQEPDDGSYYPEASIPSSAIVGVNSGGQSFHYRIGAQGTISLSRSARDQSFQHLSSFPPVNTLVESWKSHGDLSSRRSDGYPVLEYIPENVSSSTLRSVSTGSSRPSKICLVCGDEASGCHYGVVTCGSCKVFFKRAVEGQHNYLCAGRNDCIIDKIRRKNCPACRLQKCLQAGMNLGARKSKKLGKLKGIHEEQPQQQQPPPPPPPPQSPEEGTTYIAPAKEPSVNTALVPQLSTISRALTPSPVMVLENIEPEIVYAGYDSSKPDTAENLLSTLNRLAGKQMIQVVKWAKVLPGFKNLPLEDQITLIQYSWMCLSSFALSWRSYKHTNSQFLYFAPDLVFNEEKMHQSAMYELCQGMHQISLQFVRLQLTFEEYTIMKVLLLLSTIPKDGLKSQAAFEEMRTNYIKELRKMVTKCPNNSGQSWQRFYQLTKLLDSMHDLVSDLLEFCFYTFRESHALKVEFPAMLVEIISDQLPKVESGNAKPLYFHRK
The data set is described as follows: 3H-ligand displacement assay on cells, MR (HEK293 overexpressing MR). It is filed as binding. As for the experimental part: The affinity of YJH08 for GR and the other type 1 subfamily 3 nuclear hormone receptors was evaluated using ^3H-ligand displacement assays on cells. The Kd for subfamily 3 class C nuclear hormone receptors was determined on cells by displacing ^3H-steroidal agonists for the respective receptor. […] The Kd was determined using the following cell lines: DU145 (GR), LNCaP-AR (AR), MCF7 (PR, ER), and HEK293 transiently overexpressing full length human MR.
The cold ligands and ^3H-steroids were co-incubated on cells in PBS at room temperature for one hour. Following incubation, the cells were washed twice with ice cold PBS and the unbound activity was retained for analysis. The cells were lysed with 1 mL of 1M NaOH and collected. Bound and unbound fractions were counted in a liquid scintillation counter and expressed as a percentage of the total activity added per equal relative number of cells. […] These experiments were performed at three concentrations of experimental ligand (1 pM, 100 nM and 10 μM), and a linear extrapolation was used to subtract the non-specific component of binding from each treatment condition. The specific binding component was plotted against the log of the competing ligand and curve fit using a non-linear regression algorithm with PRISM software.

A short description of data set [2]: Plasma protein binding, rapid equilibrium dialysis, human plasma. As to conditions: human, plasma, pH 7.4, human plasma. The format is in vitro ADME. As for the experimental part:
(§1) Plasma Protein Binding Studies. The rapid equilibrium dialysis (RED) device inserts along with a Teflon base plate (Pierce, Rockford, Ill.) were used for the binding studies. The pH of the human or mouse plasma was adjusted to 7.4 prior to the experiment. DMSO stocks (1 mM) were spiked into the plasma to make a final concentration of 2 μM. The spiked plasma solutions (300 μL) were placed into the sample chamber (indicated by the red ring); and 500 μL of PBS buffer, pH 7.4, was placed into the adjacent chamber. The plate was incubated at 37° C. on an orbital shaker (250 rpm) for 4 hours.
(§2) After 4 hours, from the RED plate, aliquots (100 μL) were removed from each side of the insert (plasma and buffer) and dispensed into the 96-well plate. Subsequently, 100 μL of blank plasma was added to the buffer samples and 100 μL of blank buffer was added to all the collected plasma samples. 300 μL of quench solution (50% acetonitrile, 50% methanol, and 0.05% formic acid, warmed up at 37° C.) containing internal standards was added to each well. Plates were sealed, vortexed, and centrifuged at 4° C. for 15 minutes at 4000 rpm. The supernatant was transferred to fresh plates for LC/MS/MS analysis. The sample were analyzed on LC/MS/MS using an AB Sciex API 4000 instrument, coupled to a Shimadzu LC-20AD LC Pump system. Analytical samples were separated using a Waters Atlantis T3 dC18 reverse phase HPLC column (20 mm×2.1 mm) at a flow rate of 0.5 mL/min. The mobile phase consisted of 0.1% formic acid in water (solvent A) and 0.1% formic acid in acetonitrile (solvent B).
(§3) The percentage of test compound bound to protein was calculated by the following equations:
(§4) % Free=(Concentration in buffer chamber/Concentration in plasma chamber)×100%
(In general: Equilibrium dialysis compares concentrations on both sides of a semipermeable membrane.)

Data set [3] is described as follows: Plasma protein binding, rapid equilibrium dialysis, mouse plasma. As to conditions: mouse, plasma, pH 7.4, mouse plasma. It is filed as in vitro ADME. As for the experimental part:
as §1, §2, §3, §4

In data set [4] the test system is plasma protein. The data set is described as above. The format is in vitro ADME. The settings on record: plasma (rapid equilibrium dialysis device), pH 7.4, mouse plasma. As for the experimental part: as §1, §2, §3, §4
Data set [5] in a line: Dynamic PET scan of [18F]-YJH08, time activity curves. The format is in vivo, mouse. The settings on record: two phase exponential decay fit; C57B16/J mice. As for the experimental part:
To understand the biodistribution of [18F]-YJH08 in vivo, a dynamic PET scan over 60 min was first conducted in immunocompetent male C57B16/J mice (FIG. 3A). Prior to injection, the formulated dose of [18F]-YJH08 was passed through a sterile 0.22 μm membrane. Approximately 300 μCi was injected via tail vein in a volume of 100-150 μL per mouse. After a given period of uptake time, the mice were anesthetized with 2-3% isoflurane, and imaged with a Siemens Inveon micro PET/CT. For dynamic acquisitions, the mice were anesthetized prior to injection, and injected while positioned on the scanner bed. All imaging data was decay corrected, reconstructed, and analyzed with AMIDE software. Maximum intensity projections (MIPs) were generated by AMIDE software. Regions of interest (ROI) were manually placed to calculate SUV data from the dynamic acquisitions.
First, the radiotracer rapidly cleared from serum, and fitting the data with a two phase exponential decay curve estimated the fast and slow half-lives to be ˜21 sec and ˜760 sec, respectively. Moreover, liver uptake was prominent at very early time points post injection (0-300 sec), with continuous washout from ˜300-3600 sec.

[6] abbreviates: duplicate, read-out: % Bound (converted).
Setting [7] is: read-out: % Bound Average (converted).

pKd: −log10 of the molar value.

For `COc1cccc2c1-c1ccc3c(c1C(Cc1ccc(F)cc1)O2)C(C)=CC(C)(C)N3` (racemic) [YJH08, 5-(4-fluorobenzyl)-10-methoxy-2,2,4-trimethyl-2,5-dihydro-1H-chromeno[3,4-f]quinoline], in data set [1], the pKd was 6.54. For the same molecule, the fraction unbound at 4 h, 2 μM in data set [2] (setting [6]), in data set [2] (setting [7]), in data set [3] (setting [6]) and in data set [3] (setting [7]) was less than 0.0001 each time. For the same molecule, the recovery at 4 h, 2 μM in data set [4] amounted to 100%.
`COc1cccc2c1-c1ccc3c(c1C(Cc1ccc([18F])cc1)O2)C(C)=CC(C)(C)N3` (racemic) [[18F]-YJH08, [^18F]-5-(4-fluorobenzyl)-10-methoxy-2,2,4-trimethyl-2,5-dihydro-1H-chromeno[3,4-f]quinoline]: in data set [5], the “serum clearance fast half-life” value is approximately 0.35 min and the “serum clearance slow half-life” value was approximately 12.7 min.

By pKd is commonly meant the Kd on a negative log10 scale, so that one unit is a factor of ten. High values mean a small Kd, low ones a large Kd.
